This is an account of results in ChEMBL document CHEMBL5291721, “A preclinical secondary pharmacology resource illuminates target-adverse drug reaction associations of marketed drugs” (Nat Commun, 2023).

The target in one test is T1, Androgen receptor (Homo sapiens, UniProt P10275).
T1 sequence (P10275 whole entry): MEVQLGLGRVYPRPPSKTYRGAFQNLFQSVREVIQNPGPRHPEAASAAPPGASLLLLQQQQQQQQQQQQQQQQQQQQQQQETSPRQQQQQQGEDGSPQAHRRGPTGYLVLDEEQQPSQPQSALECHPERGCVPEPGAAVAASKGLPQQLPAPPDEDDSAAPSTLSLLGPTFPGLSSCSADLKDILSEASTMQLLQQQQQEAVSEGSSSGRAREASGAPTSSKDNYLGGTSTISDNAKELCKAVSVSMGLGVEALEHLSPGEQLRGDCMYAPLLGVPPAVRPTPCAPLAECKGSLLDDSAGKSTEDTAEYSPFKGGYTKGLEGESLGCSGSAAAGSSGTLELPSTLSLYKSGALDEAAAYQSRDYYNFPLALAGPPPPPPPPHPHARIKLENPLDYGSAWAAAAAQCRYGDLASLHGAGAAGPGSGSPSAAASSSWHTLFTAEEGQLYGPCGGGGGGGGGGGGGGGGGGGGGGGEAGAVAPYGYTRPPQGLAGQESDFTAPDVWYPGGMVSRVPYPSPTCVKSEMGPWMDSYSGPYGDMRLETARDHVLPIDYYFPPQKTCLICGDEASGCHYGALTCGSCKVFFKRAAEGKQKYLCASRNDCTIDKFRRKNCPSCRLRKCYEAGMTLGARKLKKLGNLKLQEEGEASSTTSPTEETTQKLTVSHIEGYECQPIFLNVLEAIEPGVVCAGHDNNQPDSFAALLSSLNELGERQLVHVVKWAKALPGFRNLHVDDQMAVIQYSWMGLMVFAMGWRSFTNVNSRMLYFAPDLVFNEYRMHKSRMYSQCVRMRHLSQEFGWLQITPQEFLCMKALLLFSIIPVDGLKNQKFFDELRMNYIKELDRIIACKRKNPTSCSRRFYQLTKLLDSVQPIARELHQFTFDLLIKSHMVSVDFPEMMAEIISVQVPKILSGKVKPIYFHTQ

The next test deals with Vasopressin V1a receptor (Homo sapiens, UniProt P37288).
In the next test the target is T2, Glucocorticoid receptor (Homo sapiens, UniProt P04150).
T2 sequence (P04150 whole entry): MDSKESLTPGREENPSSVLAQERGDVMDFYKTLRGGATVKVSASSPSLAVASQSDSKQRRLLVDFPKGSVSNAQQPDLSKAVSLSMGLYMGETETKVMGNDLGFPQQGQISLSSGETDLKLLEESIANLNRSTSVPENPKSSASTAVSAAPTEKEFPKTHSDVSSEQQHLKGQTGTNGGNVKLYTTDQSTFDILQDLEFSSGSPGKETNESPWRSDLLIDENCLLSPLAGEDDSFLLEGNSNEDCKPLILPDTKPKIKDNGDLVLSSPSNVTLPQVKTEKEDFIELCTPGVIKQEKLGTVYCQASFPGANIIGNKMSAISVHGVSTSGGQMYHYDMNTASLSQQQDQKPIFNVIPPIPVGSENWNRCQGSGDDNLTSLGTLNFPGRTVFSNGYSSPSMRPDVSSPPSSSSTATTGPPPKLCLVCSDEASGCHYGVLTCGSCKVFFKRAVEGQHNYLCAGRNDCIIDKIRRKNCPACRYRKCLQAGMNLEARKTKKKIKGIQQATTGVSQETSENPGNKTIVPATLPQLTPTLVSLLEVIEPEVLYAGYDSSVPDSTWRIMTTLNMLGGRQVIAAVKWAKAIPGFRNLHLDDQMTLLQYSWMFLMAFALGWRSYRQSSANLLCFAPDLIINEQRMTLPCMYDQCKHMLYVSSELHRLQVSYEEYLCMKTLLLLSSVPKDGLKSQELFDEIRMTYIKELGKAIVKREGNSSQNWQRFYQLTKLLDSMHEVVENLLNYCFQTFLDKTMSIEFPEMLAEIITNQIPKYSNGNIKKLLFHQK

Test [1] concerns the target Gamma-aminobutyric acid receptor subunit alpha-1/alpha-2/beta-2/gamma-2 (Homo sapiens, UniProt P14867+P18507+P47869+P47870). The format is protein-complex assay.
For test [2], the target named is T3, 5-hydroxytryptamine receptor 1A (Homo sapiens, UniProt P08908).
T3 sequence (P08908 whole entry): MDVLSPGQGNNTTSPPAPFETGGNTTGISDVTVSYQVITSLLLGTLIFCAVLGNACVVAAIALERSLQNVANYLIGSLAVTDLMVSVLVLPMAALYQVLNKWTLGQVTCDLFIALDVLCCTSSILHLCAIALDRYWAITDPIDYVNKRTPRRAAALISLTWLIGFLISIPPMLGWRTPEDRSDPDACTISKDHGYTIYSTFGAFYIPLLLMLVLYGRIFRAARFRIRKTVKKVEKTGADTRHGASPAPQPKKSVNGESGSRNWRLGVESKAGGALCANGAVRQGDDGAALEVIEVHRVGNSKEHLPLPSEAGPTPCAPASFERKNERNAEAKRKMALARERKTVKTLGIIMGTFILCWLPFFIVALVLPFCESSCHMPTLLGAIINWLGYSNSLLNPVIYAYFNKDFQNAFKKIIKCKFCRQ
The format is functional, cell-based.

For test [3], the target named is 5-hydroxytryptamine receptor 2A (Homo sapiens, UniProt P28223). It is filed as functional, cell-based.
The target in a further test is Cannabinoid receptor 1 (Homo sapiens, UniProt P21554). The format is functional, cell-based.
Test [4] has as its target T3, 5-hydroxytryptamine receptor 1A. It is filed as functional, cell-based. This is another data set of the same source.
Further: assay procedure not described here.

Gamma-aminobutyric acid receptor subunit alpha-1/alpha-2/beta-2/gamma-2, sequence (P14867 whole entry): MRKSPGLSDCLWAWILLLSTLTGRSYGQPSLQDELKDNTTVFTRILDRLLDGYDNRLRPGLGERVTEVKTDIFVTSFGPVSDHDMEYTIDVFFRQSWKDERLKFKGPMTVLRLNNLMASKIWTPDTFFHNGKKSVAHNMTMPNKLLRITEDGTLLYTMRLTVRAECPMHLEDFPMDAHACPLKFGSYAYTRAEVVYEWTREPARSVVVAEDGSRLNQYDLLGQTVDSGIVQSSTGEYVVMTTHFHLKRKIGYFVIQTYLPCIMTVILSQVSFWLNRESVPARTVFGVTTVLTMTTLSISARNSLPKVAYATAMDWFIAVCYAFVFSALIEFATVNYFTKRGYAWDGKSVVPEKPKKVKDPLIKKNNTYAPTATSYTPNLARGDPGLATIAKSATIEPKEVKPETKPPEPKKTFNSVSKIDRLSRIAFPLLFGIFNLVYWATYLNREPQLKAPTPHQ
Gamma-aminobutyric acid receptor subunit alpha-1/alpha-2/beta-2/gamma-2, sequence (P47870 whole entry): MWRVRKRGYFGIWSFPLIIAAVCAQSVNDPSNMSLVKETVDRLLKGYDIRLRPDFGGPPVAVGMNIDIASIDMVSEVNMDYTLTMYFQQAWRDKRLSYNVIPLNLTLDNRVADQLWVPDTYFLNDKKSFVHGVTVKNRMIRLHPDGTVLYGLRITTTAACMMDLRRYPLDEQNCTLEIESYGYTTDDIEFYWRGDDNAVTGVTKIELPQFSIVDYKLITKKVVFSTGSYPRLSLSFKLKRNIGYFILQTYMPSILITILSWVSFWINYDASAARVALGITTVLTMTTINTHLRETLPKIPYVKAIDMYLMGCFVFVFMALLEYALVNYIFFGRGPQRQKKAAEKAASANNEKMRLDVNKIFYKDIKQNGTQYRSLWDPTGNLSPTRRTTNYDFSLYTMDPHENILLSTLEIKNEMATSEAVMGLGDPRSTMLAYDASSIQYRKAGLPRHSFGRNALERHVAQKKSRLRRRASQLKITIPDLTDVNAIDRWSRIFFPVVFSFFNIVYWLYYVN
Gamma-aminobutyric acid receptor subunit alpha-1/alpha-2/beta-2/gamma-2, sequence (P18507 whole entry): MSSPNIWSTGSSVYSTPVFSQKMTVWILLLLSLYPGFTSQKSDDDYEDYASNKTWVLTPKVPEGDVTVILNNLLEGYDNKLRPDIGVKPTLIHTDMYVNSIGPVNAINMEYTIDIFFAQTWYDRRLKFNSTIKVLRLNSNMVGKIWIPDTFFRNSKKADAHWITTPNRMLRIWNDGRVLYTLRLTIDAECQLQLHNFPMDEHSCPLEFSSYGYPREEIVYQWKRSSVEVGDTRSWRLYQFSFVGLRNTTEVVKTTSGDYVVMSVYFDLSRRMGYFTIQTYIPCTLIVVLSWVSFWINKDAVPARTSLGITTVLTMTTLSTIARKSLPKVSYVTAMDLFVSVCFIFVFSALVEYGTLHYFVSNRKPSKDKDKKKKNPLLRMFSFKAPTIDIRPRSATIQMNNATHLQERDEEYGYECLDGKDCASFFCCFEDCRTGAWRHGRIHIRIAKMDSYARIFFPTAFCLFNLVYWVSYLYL
Gamma-aminobutyric acid receptor subunit alpha-1/alpha-2/beta-2/gamma-2, sequence (P47869 whole entry): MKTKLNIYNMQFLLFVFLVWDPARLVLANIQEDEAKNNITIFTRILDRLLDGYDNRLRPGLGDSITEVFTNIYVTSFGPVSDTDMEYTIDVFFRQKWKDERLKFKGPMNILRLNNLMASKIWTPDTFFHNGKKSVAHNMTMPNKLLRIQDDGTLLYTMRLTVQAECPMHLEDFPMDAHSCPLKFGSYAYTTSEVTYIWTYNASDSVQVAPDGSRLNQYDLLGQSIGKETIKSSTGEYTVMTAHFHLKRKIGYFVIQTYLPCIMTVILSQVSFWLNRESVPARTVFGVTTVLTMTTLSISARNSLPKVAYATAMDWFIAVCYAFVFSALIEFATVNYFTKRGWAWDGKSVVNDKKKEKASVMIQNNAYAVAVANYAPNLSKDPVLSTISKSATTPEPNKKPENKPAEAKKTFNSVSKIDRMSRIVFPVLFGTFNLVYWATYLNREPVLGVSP
Vasopressin V1a receptor, sequence (P37288 whole entry): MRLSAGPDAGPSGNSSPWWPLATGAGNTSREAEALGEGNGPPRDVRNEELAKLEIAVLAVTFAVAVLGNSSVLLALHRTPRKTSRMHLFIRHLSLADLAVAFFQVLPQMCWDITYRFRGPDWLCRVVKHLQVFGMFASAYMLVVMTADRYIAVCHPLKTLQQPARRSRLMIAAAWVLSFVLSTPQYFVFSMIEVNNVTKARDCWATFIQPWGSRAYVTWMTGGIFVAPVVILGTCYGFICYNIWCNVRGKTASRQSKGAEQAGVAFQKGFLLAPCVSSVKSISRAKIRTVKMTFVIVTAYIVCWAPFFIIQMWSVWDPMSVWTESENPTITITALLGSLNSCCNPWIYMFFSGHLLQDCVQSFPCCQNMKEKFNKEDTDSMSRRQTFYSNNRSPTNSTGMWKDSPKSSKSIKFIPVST
Cannabinoid receptor 1, sequence (P21554 whole entry): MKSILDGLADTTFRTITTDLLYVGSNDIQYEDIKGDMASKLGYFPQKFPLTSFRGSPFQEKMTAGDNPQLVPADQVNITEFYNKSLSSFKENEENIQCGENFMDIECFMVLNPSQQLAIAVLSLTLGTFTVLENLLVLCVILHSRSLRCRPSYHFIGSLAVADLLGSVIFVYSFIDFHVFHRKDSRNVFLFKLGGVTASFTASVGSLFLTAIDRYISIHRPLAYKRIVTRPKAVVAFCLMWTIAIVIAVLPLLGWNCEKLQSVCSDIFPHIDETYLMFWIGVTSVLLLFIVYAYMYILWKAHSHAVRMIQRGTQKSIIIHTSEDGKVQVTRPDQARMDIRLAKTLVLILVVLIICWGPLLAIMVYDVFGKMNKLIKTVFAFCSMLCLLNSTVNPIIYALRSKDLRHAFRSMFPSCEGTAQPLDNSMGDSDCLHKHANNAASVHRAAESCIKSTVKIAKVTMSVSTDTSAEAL
5-hydroxytryptamine receptor 2A, sequence (P28223 whole entry): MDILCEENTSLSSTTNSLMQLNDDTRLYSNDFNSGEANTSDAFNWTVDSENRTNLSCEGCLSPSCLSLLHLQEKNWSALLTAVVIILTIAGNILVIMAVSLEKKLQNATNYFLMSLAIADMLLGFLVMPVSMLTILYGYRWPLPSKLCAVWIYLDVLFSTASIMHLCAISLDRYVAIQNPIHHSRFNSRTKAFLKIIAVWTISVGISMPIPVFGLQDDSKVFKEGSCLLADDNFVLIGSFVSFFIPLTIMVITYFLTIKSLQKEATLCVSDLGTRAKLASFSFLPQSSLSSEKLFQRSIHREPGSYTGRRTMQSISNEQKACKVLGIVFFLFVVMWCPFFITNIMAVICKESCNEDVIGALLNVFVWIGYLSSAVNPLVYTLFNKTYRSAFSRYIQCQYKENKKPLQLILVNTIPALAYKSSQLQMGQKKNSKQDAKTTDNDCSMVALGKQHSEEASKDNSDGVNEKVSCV

In general, AC50 refers to the concentration giving half of the maximal activity seen. Turning to `CCCCCCCC(=O)N[C@H](CN1CCCC1)[C@H](O)c1ccc2c(c1)OCCO2`, at Androgen receptor, the half-maximal activity concentration (AC50) was more than 30 µM. For `C[C@]1(COc2ccc(N3CCC(Oc4ccc(OC(F)(F)F)cc4)CC3)cc2)Cn2cc([N+](=O)[O-])nc2O1`, the AC50 is more than 10 µM on Vasopressin V1a receptor, more than 30 µM on Androgen receptor and more than 30 µM on Glucocorticoid receptor. At Androgen receptor, `CC(=O)OC(C)OC(=O)C(C)c1ccc(-c2ccccc2)c(F)c1` (stereo unspecified) yielded a concentration at half-maximal activity (AC50) of more than 30 µM.

Turning to `C[C@H](N)C(=O)O` [ALANINE], the AC50 at Androgen receptor was more than 30 µM. Regarding `O=C(Nc1nc(-c2cc(Cl)cs2)c(N2CCN(C3CCCCC3)CC2)s1)c1cnc(N2CCC(C(=O)O)CC2)c(Cl)c1` [AVATROMBOPAG], the AC50 is more than 10 µM at Vasopressin V1a receptor and more than 30 µM on Androgen receptor. On Androgen receptor, `COC(=O)C1=C(C)NC(C)=C(C(=O)O[C@H]2CCN(Cc3ccccc3)C2)[C@H]1c1cccc([N+](=O)[O-])c1` [BARNIDIPINE] gave an AC50 of more than 30 µM.

Take `Cc1nnc(SCC2=C(C(=O)O)N3C(=O)[C@@H](NC(=O)Cn4cc(Cl)c(=O)c(Cl)c4)[C@H]3SC2)s1` [CEFAZEDONE]: the AC50 at Androgen receptor was more than 30 µM.

`O=C(O)CC(O)(CC(=O)O)C(=O)O` [CITRIC ACID] gave an AC50 in test [1] of more than 30 µM. `CCC[C@@H]1C[C@@H](C(=O)N[C@@H]([C@H]2O[C@H](SC)[C@H](OP(=O)(O)O)[C@@H](O)[C@H]2O)[C@H](C)Cl)N(C)C1` [CLINDAMYCIN PHOSPHATE] displayed an AC50 at Androgen receptor of more than 30 µM. `Oc1c(I)cc(Cl)c2cccnc12` [CLIOQUINOL]: the AC50 (in test [2]; in test [3]; on Cannabinoid receptor 1; in test [4]; on Androgen receptor) was more than 30 µM throughout. At Androgen receptor, `Nc1ccncc1` [DALFAMPRIDINE] registered an AC50 of more than 30 µM.

For the compound `Cc1onc(-c2c(Cl)cccc2Cl)c1C(=O)N[C@@H]1C(=O)N2[C@@H]1SC(C)(C)[C@@H]2C(=O)O` [DICLOXACILLIN], the AC50 (in test [1]; on Androgen receptor) was more than 30 µM each time. Regarding `C[C@H]1O[C@@H](O[C@H]2[C@@H](O)C[C@H](O[C@H]3[C@@H](O)C[C@H](O[C@H]4CC[C@@]5(C)[C@H](CC[C@@H]6[C@@H]5CC[C@]5(C)[C@@H](C7=CC(=O)OC7)CC[C@]65O)C4)O[C@@H]3C)O[C@@H]2C)C[C@H](O)[C@@H]1O` [DIGITOXIN], the AC50 (in test [1]; on Androgen receptor) was more than 30 µM each time.

As to `OC(CCCN1CCCCC1)(c1ccccc1)c1ccccc1` [DIPHENIDOL], the AC50 (in test [1]; on Androgen receptor) was more than 30 µM throughout. `CC(N)CCCC(C)(C)O` (stereo unspecified) [HEPTAMINOL]: in test [1], the AC50 is more than 30 µM.

`O=[N+]([O-])O[C@H]1CO[C@H]2[C@@H]1OC[C@H]2O[N+](=O)[O-]` [ISOSORBIDE DINITRATE]: the AC50 in test [1] was more than 30 µM. On to `NC(=O)NCCC[C@H](N)C(=O)O` [L-CITRULLINE], for which the concentration at half-maximal activity (AC50) on Androgen receptor was more than 30 µM. Same read-out and setting: the figure for `CC(=O)O[C@H]1C[C@H](O[C@H]2[C@@H](O)C[C@H](O[C@H]3[C@@H](O)C[C@H](O[C@H]4CC[C@@]5(C)[C@H](CC[C@@H]6[C@@H]5C[C@@H](O)[C@]5(C)[C@@H](C7=CC(=O)OC7)CC[C@]65O)C4)O[C@@H]3C)O[C@@H]2C)O[C@H](C)[C@H]1O[C@@H]1O[C@H](CO)[C@@H](O)[C@H](O)[C@H]1O` [LANATOSIDE C] is more than 30 µM.

Compound `Nc1nc(N)nc(Nc2ccc([As]3SCC(CO)S3)cc2)n1` (stereo unspecified) [MELARSOPROL] came in with an AC50 at Androgen receptor of more than 30 µM. For `CO[C@H]1[C@@H](O)C[C@H](O[C@H]2[C@@H](O)C[C@H](O[C@H]3[C@@H](O)C[C@H](O[C@H]4CC[C@@]5(C)[C@H](CC[C@@H]6[C@@H]5C[C@@H](O)[C@]5(C)[C@@H](C7=CC(=O)OC7)CC[C@]65O)C4)O[C@@H]3C)O[C@@H]2C)O[C@@H]1C` [METILDIGOXIN], the AC50 at Androgen receptor is more than 30 µM. The compound `CC1(C)S[C@@H]2[C@H](NC(=O)[C@H](NC(=O)N3CCN(S(C)(=O)=O)C3=O)c3ccccc3)C(=O)N2[C@H]1C(=O)O` [MEZLOCILLIN] returned an AC50 at Androgen receptor of more than 30 µM. On the same count and under the same terms, in the case of `CCC(=O)O[C@@H]1CC(=O)O[C@H](C)C/C=C/C=C/[C@H](OC(C)=O)[C@H](C)C[C@H](CC=O)[C@H](O[C@@H]2O[C@H](C)[C@@H](O[C@H]3C[C@@](C)(OC(C)=O)[C@@H](OC(=O)CC)[C@H](C)O3)[C@H](N(C)C)[C@H]2O)[C@H]1OC` [MIOCAMYCIN] it was more than 30 µM.

`CCOC(=O)[C@H](CCc1ccccc1)N[C@@H](C)C(=O)N1Cc2cc(OC)c(OC)cc2C[C@H]1C(=O)O` [MOEXIPRIL] had an AC50 in test [1] of more than 30 µM.

In test [1], `CCN(CC)CCOC(=O)C(Cc1cccc2ccccc12)CC1CCCO1` (stereo unspecified) [NAFRONYL] registered an AC50 of more than 30 µM. Compound `c1ccc2c(CC3=NCCN3)cccc2c1` [NAPHAZOLINE] gave an AC50 on Androgen receptor of more than 30 µM.

For `N[C@@H](Cc1c[nH]c2ccc(O)cc12)C(=O)O` [OXITRIPTAN], the AC50 in test [1] is more than 30 µM. Regarding `CNC(=O)Oc1ccc2c(c1)[C@]1(C)CCN(C)[C@@H]1N2C` [PHYSOSTIGMINE], the AC50 (in test [2]; on Cannabinoid receptor 1; in test [1]; in test [4]; at Vasopressin V1a receptor; on Glucocorticoid receptor) was more than 30 µM each time. With `C1CNCCN1` [PIPERAZINE], in test [1], the half-maximal activity concentration (AC50) was more than 30 µM.

For `CO[C@H]1/C=C/O[C@@]2(C)Oc3c(C)c(O)c4c(O)c(cc(O)c4c3C2=O)NC(=O)/C(C)=C\C=C\[C@H](C)[C@H](O)[C@@H](C)[C@@H](O)[C@@H](C)[C@H](OC(C)=O)[C@@H]1C` [RIFAMYCIN], the AC50 in test [1] was more than 30 µM. As to `CCCCCCCCCCCCCCCCCC(=O)NCCCC[C@H](NC(=O)CC[C@@H](NC(=O)[C@H](C)NC(=O)[C@@H](C)O[C@H]1[C@H](O)[C@@H](CO)OC(O)[C@@H]1NC(C)=O)C(N)=O)C(=O)O` (stereo partly specified) [ROMURTIDE], the AC50 at Androgen receptor worked out at 5.69 µM.

In test [1], `O=C(Oc1ccccc1C(=O)O)c1ccccc1O` [SALSALATE] showed an AC50 of more than 30 µM. In the case of `CCOC(=O)[C@H](CCc1ccccc1)N[C@H]1CS[C@H](c2cccs2)CN(CC(=O)O)C1=O` [TEMOCAPRIL], the AC50 on Androgen receptor is more than 30 µM. Regarding `COc1cc([C@@H]2c3cc4c(cc3[C@@H](O[C@@H]3O[C@@H]5CO[C@@H](c6cccs6)O[C@H]5[C@H](O)[C@H]3O)[C@H]3COC(=O)[C@H]23)OCO4)cc(OC)c1O` [TENIPOSIDE], in test [1], the concentration at half-maximal activity (AC50) was more than 30 µM. As for `CCSc1ccc2c(c1)N(CCCN1CCN(C)CC1)c1ccccc1S2` [THIETHYLPERAZINE], the AC50 in test [3] and in test [1] was more than 30 µM throughout. On to `C[C@@H]1C[C@H]2[C@@H]3CCC4=CC(=O)C=C[C@]4(C)C3=CC[C@]2(C)[C@H]1C(=O)CN1CCN(c2cc(N3CCCC3)nc(N3CCCC3)n2)CC1` [TIRILAZAD], for which the activity at Androgen receptor was half-maximal at 6.61 µM (AC50).
